# Columns and labels:
# Assay in all cases: Kinobeads elution with test compound, mouse brain lysate, MS
# Assay type in all cases: binding
# Conditions in all cases: kinase released from kinobeads by specific elution
# CaMK2b = CaMK2b (Mus musculus, UniProt P28652)
# Outline: (§1)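 Competitive elution: mouse brain lysate bound to kinobeads, gentle wash, test compound 1.0 mM in elution buffer, 30 min, 4° C; solvent control 2% DMSO/DMF. Eluates → DTT reduction, iodoacetamide alkylation, SDS gel → MS identification.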
# CaMK2d = target: T1, CaMK2d (Mus musculus, UniProt Q6PHZ2)
# T1 construct: […]; from tissue; host or cells: mouse brain
# Outline: as §1
# EphB1 = target: T2, EphB1 (Mus musculus, UniProt Q8CBF3)
# T2 sequence (Q8CBF3 18-984): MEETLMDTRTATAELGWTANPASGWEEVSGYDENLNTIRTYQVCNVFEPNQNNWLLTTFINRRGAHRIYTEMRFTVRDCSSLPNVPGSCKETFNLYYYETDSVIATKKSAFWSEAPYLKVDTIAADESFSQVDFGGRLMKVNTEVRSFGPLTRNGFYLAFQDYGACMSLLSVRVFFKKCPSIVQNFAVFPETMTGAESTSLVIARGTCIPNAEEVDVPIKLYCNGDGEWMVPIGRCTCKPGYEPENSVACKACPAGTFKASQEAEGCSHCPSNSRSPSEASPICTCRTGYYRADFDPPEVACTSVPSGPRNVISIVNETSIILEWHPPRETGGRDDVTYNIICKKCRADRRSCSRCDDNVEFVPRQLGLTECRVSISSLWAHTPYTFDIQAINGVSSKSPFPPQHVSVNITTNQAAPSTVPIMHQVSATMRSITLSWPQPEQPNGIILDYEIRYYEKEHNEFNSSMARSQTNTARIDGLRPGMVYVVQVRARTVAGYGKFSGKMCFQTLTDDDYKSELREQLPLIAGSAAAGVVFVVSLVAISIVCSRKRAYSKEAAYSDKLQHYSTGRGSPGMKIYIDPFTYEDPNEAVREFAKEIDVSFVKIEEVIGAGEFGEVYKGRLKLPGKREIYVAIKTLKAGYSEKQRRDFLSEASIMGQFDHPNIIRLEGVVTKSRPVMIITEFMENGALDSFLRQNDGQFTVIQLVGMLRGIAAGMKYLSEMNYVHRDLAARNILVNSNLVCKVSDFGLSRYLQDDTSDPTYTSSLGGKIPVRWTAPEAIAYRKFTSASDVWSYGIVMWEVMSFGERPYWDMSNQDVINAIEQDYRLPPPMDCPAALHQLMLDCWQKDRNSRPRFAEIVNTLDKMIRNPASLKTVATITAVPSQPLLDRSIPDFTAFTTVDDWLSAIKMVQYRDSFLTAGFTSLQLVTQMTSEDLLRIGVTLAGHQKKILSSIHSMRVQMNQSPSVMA
# Outline: as §1
# JNK2 = target: T3, JNK2 (Mus musculus, UniProt Q9WTU6)
# T3 construct: from tissue; host or cells: mouse brain
# Outline: as §1
# PYK2 = target: T4, PYK2 (Mus musculus, UniProt Q9QVP9)
# T4 construct: from tissue; host or cells: mouse brain
# Outline: as §1
# TRKB = target: T5, TRKB (Mus musculus, UniProt P15209)
# T5 construct: from tissue; host or cells: mouse brain
# Source text: This example illustrates competitive elution of proteins bound to kinobeads with non-modified test compounds (see particularly the fourth aspect of the invention).
# The kinobeads were contacted with mouse brain lysate under conditions that allow the binding of the proteins in the lysate to the ligands. The binding conditions were close to physiological by choosing suitable buffer conditions preserving the function of the proteins. After removing non-captured proteins through a gentle washing procedure the bound proteins were contacted with a test compound for protein elution.
# Various test compounds (see section 2.7) were used to release bound proteins following these steps:
# 1. Resuspend beads with bound proteins (section 2.4) in 1×DP buffer/0.2% NP-40 as 1:3 slurry (volume/volume). 2. Transfer 20 μl the 1:3 slurry into MoBiTech columns (equivalent to 5 μl of beads). 3. Place the column into an Eppendorf tube and centrifuge it for 15 seconds at 800 rpm at 4° C. Close columns with lower lid. 4. Add 10 μl elution buffer containing 1.0 mM of the test compound (concentration ranges of 0.1 to 1.0 mM are suitable). As a control use elution buffer containing 2% DMSO or 2% DMF dependent on the solvent used for dissolving the test compound. Close column with upper lid. 5. Incubate for 30 minutes at 4° C. in an Eppendorf incubator at 700 rpm. 6. […] To harvest the eluate centrifuge 2 minutes at 2.000 rpm in table top centrifuge at room temperature. The typical volume of the eluate is approximately 15 μl. 7. Add 5 μl 4× NuPAGE SDS Sample Buffer (Invitrogen, NP0007) containing 100 mM DTT (DTT has to be added just prior to use). 8. Incubate for 30 minutes at 50° C. 9. Add 1/10 volume of 200 mg/ml iodoacetamide, incubate for 30 min at room temperature, protect from light. This reaction leads to the alkylation of cysteines for mass spectrometry. 10. Before loading samples onto the gel, centrifuge samples for 5 minutes at 15.000 rpm in order to remove precipitates. 11. […] 2.6 Preparation of Stock Solutions used in this Protocol
# Search criteria varied depending on which mass spectrometer was used for the analysis.
# T3 sequence (Q9WTU6 whole entry): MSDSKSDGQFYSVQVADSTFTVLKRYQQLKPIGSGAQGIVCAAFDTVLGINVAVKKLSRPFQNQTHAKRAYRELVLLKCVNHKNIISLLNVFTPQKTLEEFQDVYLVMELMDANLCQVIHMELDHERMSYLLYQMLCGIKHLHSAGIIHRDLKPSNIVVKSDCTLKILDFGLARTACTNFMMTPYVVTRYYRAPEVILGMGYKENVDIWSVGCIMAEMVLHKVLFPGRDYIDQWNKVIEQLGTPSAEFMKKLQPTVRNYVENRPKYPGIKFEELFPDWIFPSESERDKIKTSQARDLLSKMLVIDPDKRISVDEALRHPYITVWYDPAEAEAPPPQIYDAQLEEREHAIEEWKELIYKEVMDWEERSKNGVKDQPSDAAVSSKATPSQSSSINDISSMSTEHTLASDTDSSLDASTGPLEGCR
# T4 sequence (Q9QVP9 whole entry): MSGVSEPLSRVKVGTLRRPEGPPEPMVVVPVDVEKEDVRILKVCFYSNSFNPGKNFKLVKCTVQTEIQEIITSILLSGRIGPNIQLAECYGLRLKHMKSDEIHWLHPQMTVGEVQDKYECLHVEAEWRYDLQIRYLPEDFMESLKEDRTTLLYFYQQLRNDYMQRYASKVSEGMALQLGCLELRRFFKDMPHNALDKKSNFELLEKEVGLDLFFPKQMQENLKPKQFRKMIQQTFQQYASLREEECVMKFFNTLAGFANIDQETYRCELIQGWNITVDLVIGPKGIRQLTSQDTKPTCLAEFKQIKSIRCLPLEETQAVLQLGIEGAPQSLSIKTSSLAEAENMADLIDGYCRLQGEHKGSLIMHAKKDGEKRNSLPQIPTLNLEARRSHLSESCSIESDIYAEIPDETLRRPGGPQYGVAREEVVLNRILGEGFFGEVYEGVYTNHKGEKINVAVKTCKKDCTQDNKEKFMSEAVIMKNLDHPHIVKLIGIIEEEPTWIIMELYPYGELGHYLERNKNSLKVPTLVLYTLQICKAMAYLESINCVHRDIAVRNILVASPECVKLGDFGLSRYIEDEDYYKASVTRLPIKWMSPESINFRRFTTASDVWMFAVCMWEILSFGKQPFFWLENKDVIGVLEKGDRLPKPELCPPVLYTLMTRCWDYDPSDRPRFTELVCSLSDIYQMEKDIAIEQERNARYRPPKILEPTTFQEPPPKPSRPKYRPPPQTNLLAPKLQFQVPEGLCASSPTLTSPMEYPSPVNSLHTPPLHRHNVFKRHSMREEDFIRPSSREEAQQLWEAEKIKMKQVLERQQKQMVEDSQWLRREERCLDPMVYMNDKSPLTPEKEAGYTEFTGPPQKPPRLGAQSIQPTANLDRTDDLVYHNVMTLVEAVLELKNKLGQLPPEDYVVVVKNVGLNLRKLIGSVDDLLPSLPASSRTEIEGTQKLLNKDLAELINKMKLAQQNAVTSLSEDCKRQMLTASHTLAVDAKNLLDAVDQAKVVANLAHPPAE
# Chain of CaMK2b (P28652 whole entry): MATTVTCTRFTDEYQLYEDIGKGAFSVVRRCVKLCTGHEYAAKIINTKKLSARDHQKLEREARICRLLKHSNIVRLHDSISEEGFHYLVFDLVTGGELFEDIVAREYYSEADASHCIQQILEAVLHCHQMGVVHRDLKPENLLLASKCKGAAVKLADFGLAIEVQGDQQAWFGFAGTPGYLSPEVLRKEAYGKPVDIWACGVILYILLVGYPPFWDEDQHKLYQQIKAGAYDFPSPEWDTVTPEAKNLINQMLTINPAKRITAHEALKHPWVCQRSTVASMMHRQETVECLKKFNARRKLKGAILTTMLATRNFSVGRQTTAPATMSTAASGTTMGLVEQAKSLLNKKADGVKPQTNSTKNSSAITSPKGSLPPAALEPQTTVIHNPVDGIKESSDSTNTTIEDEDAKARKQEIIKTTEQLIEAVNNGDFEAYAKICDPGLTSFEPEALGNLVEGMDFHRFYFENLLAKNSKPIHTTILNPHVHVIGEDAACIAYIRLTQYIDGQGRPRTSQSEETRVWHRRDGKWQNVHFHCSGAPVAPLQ
# T5 sequence (P15209 32-821): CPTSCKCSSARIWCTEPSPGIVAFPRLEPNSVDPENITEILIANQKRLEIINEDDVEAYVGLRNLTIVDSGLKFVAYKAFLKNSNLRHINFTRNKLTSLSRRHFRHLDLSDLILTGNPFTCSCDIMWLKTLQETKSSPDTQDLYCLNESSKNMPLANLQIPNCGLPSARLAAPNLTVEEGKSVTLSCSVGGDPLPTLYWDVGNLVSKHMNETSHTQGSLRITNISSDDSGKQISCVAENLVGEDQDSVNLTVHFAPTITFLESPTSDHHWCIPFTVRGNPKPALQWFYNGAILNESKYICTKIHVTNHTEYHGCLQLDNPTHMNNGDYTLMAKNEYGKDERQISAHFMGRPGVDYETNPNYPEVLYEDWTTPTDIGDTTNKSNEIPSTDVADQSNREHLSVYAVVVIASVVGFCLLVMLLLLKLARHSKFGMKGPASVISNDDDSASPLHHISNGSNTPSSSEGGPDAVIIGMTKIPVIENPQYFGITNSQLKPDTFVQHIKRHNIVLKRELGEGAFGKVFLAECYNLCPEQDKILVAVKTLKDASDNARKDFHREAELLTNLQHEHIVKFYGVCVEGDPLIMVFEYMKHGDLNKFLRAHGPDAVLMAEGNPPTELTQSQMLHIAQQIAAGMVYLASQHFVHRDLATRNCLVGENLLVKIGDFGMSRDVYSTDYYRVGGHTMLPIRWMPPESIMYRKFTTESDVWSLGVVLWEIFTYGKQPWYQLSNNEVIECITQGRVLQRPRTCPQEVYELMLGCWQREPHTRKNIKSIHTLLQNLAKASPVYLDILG
# T1 sequence (Q6PHZ2 whole entry): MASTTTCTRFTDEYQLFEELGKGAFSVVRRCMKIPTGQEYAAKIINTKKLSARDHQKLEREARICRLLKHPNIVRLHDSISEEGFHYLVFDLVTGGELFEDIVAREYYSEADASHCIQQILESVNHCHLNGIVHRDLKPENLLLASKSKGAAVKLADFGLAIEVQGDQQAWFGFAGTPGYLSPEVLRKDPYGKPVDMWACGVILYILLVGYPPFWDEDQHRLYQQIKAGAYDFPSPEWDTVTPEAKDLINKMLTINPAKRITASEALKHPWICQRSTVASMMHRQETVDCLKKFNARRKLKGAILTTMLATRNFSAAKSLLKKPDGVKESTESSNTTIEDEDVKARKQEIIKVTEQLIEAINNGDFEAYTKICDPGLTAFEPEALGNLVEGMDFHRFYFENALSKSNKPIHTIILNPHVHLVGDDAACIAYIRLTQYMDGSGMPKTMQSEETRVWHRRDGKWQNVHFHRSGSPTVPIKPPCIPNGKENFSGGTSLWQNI
"mass spectrometry score, CaMK2b (CaMK2b)","number of identified peptides, CaMK2b (CaMK2b)","mass spectrometry score, CaMK2d (CaMK2d)","number of identified peptides, CaMK2d (CaMK2d)","mass spectrometry score, EphB1 (EphB1)","number of identified peptides, EphB1 (EphB1)","mass spectrometry score, JNK2 (JNK2)","number of identified peptides, JNK2 (JNK2)","mass spectrometry score, PYK2 (PYK2)","number of identified peptides, PYK2 (PYK2)","mass spectrometry score, TRKB (TRKB)",Compound,"number of identified peptides, TRKB (TRKB)"
679,16,473,12,366,10,277,7,1909,48,207,"CC(C)[C@H](CO)Nc1nc(Nc2ccc(C(=O)O)c(Cl)c2)c2ncn(C(C)C)c2n1 [Purvalanol B, reference compound]",4
685,30,444,11,,,662,18,1228,58,,NCc1ccc(Nc2ncc(F)c(Nc3ccccc3)n2)cc1 [CZC00008004],
615,75,434,36,180,10,369,20,809,39,,CCCCCCCCCCCCOS(=O)(=O)[O-].[Na+] [SDS],
499,14,328,7,,,702,21,1401,42,,Cn1c(=O)c(-c2c(Cl)cccc2Cl)cc2cnc(Nc3ccc(CN)cc3)cc21 [CZC7324],

Compound,"mass spectrometry score, CaMK2b (CaMK2b)","number of identified peptides, CaMK2b (CaMK2b)","mass spectrometry score, CaMK2d (CaMK2d)","number of identified peptides, CaMK2d (CaMK2d)","mass spectrometry score, EphB1 (EphB1)","number of identified peptides, EphB1 (EphB1)","mass spectrometry score, JNK2 (JNK2)","number of identified peptides, JNK2 (JNK2)","mass spectrometry score, PYK2 (PYK2)","number of identified peptides, PYK2 (PYK2)","mass spectrometry score, TRKB (TRKB)","number of identified peptides, TRKB (TRKB)"
CNC1CC2OC(C)(C1OC)n1c3ccccc3c3c4c(c5c6ccccc6n2c5c31)C(=O)NC4 (stereo not drawn) [CZC9280],1182,72,822,40,,,,,1978,82,,4

# — patent US20090238808A1, “Process for the identification of novel enzyme interacting compounds” (priority 2005, published 2009)
